Results reported in patent US9271948B2, “Agent for improving vesicourethral dyssynergia” (TAIHO PHARMACEUTICAL CO., LTD., priority 2013, dated 2016).

Assays:
Format in all cases: in vivo
[1] = test system: dysuria model rat (STZ-treated female Wistar rats); assay: Effect on maximum voiding quantity in dysuria model rat (Test Example 2); settings: 30 mg/kg p.o. twice a day for four weeks, under urethane anesthesia, Sham 1.45 ± 0.14, Control 2.25 ± 0.68, *p < 0.05 vs. control
Method: The dysuria models in this example were prepared in the same manner as in Test Example 1 by treating 10-week-old female Wistar rats with STZ (65 mg/kg, i.p.). The test drugs (vehicle: 6% Gelucire, Compound 1 of the present invention 30 mg/kg) were orally administered to each group after four weeks from the preparation of the models (at a time dysuria is assumed to be developed) twice a day for four weeks. On the day following the final administration, the maximum voiding quantity was measured under urethane anesthesia.

[2] = test system: model rat having spinal cord injury (female Wistar rats); assay: Effect on voiding dysfunction based on vesicourethral dyssynergia in spinal cord injury model rat (Test Example 3); settings: spinal cord injury model (Th8-9); 250 mg/kg p.o. once a day for four weeks; vs control group (6% Gelucire)
Method: The effect of Compound 1 of the present invention on dysuria was evaluated using a model rat having spinal cord injury, which is a typical disease causing dysuria due to vesicourethral dyssynergia.
The dysuria models in this example were prepared by placing a 40 g weight on the spinal cord in the eighth to ninth thoracic vertebrae (Th8-9) of 7-week-old female Wistar rats for 30 minutes.
The test drugs (vehicle: 6% Gelucire, Compound 1 of the present invention 250 mg/kg) were orally administered to each group from the day following the preparation of the models once a day for four weeks. On the day following the final administration, cystometry was performed in a wakeful state, thereby evaluating the voiding function (micturition efficiency).

[3] = test system: dysuria model rat (STZ-treated female Wistar rats); assay: Effect of ameliorating vesicourethral dyssynergia in dysuria model rat (Test Example 1); settings: STZ 65 mg/kg i.p. model; 30 mg/kg p.o. twice a day for four weeks starting four weeks after model preparation; measured under urethane anesthesia; control (6% Gelucire) 3.7±0.7
Method: The effect of 3-(15-hydroxypentadecyl)-2,4,4-trimethyl-2-cyclohexene-1-one (hereinafter referred to as “Compound 1 of the present invention”) on vesicourethral dyssynergia was evaluated.
The dysuria models in this example were prepared by treating 10-week-old female Wistar rats with streptozotocin (hereinafter referred to as STZ; in an amount of 65 mg/kg, i.p.). The Sham group was prepared by treating the rats with a citric acid buffer solution instead of STZ. The test drugs (vehicle: 6% Gelucire, Compound 1 of the present invention 30 mg/kg) were orally administered to each group after four weeks from the preparation of the models (at a time dysuria is assumed to be developed) twice a day for four weeks. On the day following the final administration, the intravesical and urethral pressure was measured under urethane anesthesia, thereby evaluating the cooperation of the bladder and the urethra.
Further, in contrast to the control group receiving vehicle (6% Gelucire) having a time lag of 3.7±0.7 seconds, the time lag in the group receiving Compound 1 of the present invention was reduced to 2.0±0.4 seconds, showing a significant effect of ameliorating vesicourethral dyssynergia.

[4] = test system: dysuria model rat (STZ-treated female Wistar rats); assay: Effects of cholinergic agent and α1 blocker on vesicourethral dyssynergia of dysuria model rat (Comparative Example 2); settings: STZ model four weeks after preparation; bethanechol 1 mg/kg i.v., tamsulosin 0.3 mg/kg i.v.; under urethane anesthesia; vs control (physiological saline)
Method: The effects of a cholinergic agent (detrusor contracting agent: bethanechol) and an al blocker (urethra relaxation agent: tamsulosin) on vesicourethral dyssynergia were evaluated.
The dysuria models in the present example were prepared by treating 10-week-old female Wistar rats with STZ (65 mg/kg, i.p.). The Sham group was prepared by treating the rats with a citric acid buffer solution instead of STZ. Four weeks after the preparation of the models, the intravesical and urethral pressure was measured under urethane anesthesia, thereby evaluating the effects of the test drugs (vehicle: physiological saline solution, bethanechol 1 mg/kg i.v., and tamsulosin 0.3 mg/kg i.v.) with regard to the cooperation of the bladder and the urethra.

SMILES	Maximum voided volme [1]	micturition efficiency (cystometry in a wakeful state) [2]	time lag between the bladder contraction and the urethra relaxation [3] [s]	effect on extension of the time lag between the bladder contraction and the urethra relaxation [4]
CC1=C(CCCCCCCCCCCCCCCO)C(C)(C)CCC1=O [Compound 1 of the present invention, 3-(15-hydroxypentadecyl)-2,4,4-trimethyl-2-cyclohexene-1-one]	4.44 ± 0.85* mL	significant increase in micturition efficiency	2.0 ± 0.4	
CC(C[N+](C)(C)C)OC(N)=O (centres unmarked) [Bethanechol, bethanechol]				no effects
CCOc1ccccc1OCCN[C@H](C)Cc1ccc(OC)c(S(N)(=O)=O)c1 [tamsulosin]				no effects
